Reference: patent US20100016207A1, “Methods and Compositions for Raising Levels and Release of Gamma Aminobutyric Acid” (priority 2005, published 2010)

Legend:
[1] = tested on: brain (striatal) GABA, glutamine and glutamate levels; assay: Striatal tissue neurotransmitter contents after oral glutamine (HPLC-EC); format: in vivo, Sprague Dawley rats; settings: Gln by gavage, striata 2.5 hrs after dosing, vs saline (FIG. 3)
Experimental: (§1) Male adult Sprague Dawley (SD) rats (˜250 g) (n=9) were reared under and exposed to a 12 hr light/dark cycle, and provided with food (16% protein) and water ad libitum. Gln (0.5 grams per kilogram (g/Kg) or 1.0 g/Kg, in saline) or saline were administered by gavage. Rats were sacrificed by decapitation 2.5 hours (h) later.
To measure GABA contents, brains were quickly dissected on a chilled dissection board. Striata were homogenized with HClO4 and neutralized with 0.1 M Borate buffer (1:10). Data were normalized by the wet weights of the samples.
(§2) GABA was measured by HPLC, using an ODS column and OPA-sulfite derivation with electrochemical detection. OPA-sulfite HPLC-EC derivation was used to measure GABA levels in both brain tissue and microdialysis samples. The samples were derivatized at 4° C. to allow usage of an auto-sampler (Alltech 580). The detector used was an ESA Coulochem® II 5100A with an ESA microdialysis cell.
(§3) Data are presented as mean+/−S.E.M. ANOVA or t-test was used to determine differences between groups (significance level, p<0.05).

[2] = Plasma glutamate and glutamine levels after oral glutamine; format: in vivo, Sprague Dawley rats; settings: Gln by gavage, vs saline (FIG. 4)
Experimental: as §1, §3

[3] = tested on: GABA release in rat striatum; assay: Microdialysis of spontaneous and NMDA-evoked GABA release in rat striatum; format: in vivo, rats; settings: striatal microdialysis, mean±S.E.M.
Experimental: as §2, §3
Microdialysis was carried out in freely moving rats. Rats were anesthetized, and CMA/11 guide cannulas were permanently implanted into right striatum (AP=+0.5, ML=−3.0 from Bregma, DV=−3.3 mm from Dura) 1 week prior to microdialysis sampling. Dialysis collection was performed using a CMA/11 probe (4 mm), perfused with artificial cerebrospinal fluid (aCSF) at […] and collected at 20 min intervals.
GABAergic neurons were stimulated by NMDA (500 μM) in aCSF, 1 hr after Gln administration by gavage.

## NC(=O)CC[C@H](N)C(=O)O [Gln, glutamine]
[1]
  striatal Gln levels: significantly increased
  striatal Glu levels: slightly decreased
[2]
  plasma Gln levels: increased
  plasma Glu levels: not
[3]; Gln by gavage, freely moving rats, saline 111±7%, p<0.05 (FIG. 6)
  Maximal spontaneous GABA release: 141±12%
[3]; NMDA 500 μM in aCSF 1 hr after Gln by gavage, saline 177±40% (FIG. 7)
  NMDA-evoked GABA release: 252±37%
